Test results taken from patent US9487489B2, “Halogen-substituted pyrazole derivatives as pest-control agents” (BAYER CROPSCIENCE AKTIENGESELLSCHAFT, priority 2013, dated 2016).

Legend:
[1] = logP determination by HPLC on a reversed-phase column (C18), EEC Directive 79/831 Annex V.A8; type: physicochemical; details: HPLC on reversed-phase column (C18), acetonitrile/water with formic acid, EEC Directive 79/831 Annex V.A8
Procedure: (§1) ^a) Note regarding the determination of the logP values and mass detection: The determination of the given logP values was carried out in accordance with EEC Directive 79/831 Annex V.A8 by HPLC (High Performance Liquid Chromatography) on a reversed-phase column (C18). Agilent 1100 LC system; 50*4.6 Zorbax Eclipse Plus C18 1.8 micron; mobile phase A: acetonitrile (0.1% formic acid); mobile phase B: water (0.09% formic acid); linear gradient from 10% acetonitrile to 95% acetonitrile in 4.25 min, then 95% acetonitrile for a further 1.25 min; oven temperature 55° C.; flow rate: 2.0 ml/min. Mass detection is carried out via an Agilend MSD system.
as §1, with “^*)” for “^a)”

[2] = system: greenhouse red spider mite (Tetranychus urticae); experiment: Tetranychus urticae spray test, OP-resistant (TETRUR); type: in vivo; details: bean leaf discs, after 6 days
Procedure: J. Tetranychus urticae-spray Test, OP-Resistant (TETRUR)
(§2) Solvent: 78.0 parts by weight of acetone
(§3) • 1.5 parts by weight of dimethylformamide Emulsifier: alkylaryl polyglycol ether
(§4) To produce a suitable preparation of active compound, 1 part by weight of active compound is dissolved using the stated parts by weight of solvent and made up with water comprising an emulsifier concentration of 1000 ppm until the desired concentration is reached. To produce further test concentrations, the preparation is diluted with emulsifier-containing water.
Discs of bean leaves (Phaseolus vulgaris) which are infested by all stages of the greenhouse red spider mite (Tetranychus urticae) are sprayed with an active compound preparation of the desired concentration.
After 6 days, the efficacy in % is determined. 100% means that all of the spider mites have been killed; 0% means that none of the spider mites have been killed.

[3] = system: larvae of the mustard beetle (Phaedon cochleariae); experiment: Phaedon cochleariae spray test (PHAECO); type: in vivo; details: Chinese cabbage leaf discs, after 7 days
Procedure: H. Phaedon cochleariae-spray Test (PHAECO)
Solvents: 78.0 parts by weight of acetone
as §3, §4
After 7 days, the efficacy in % is determined. 100% means that all of the beetle larvae have been killed; 0% means that none of the beetle larvae have been killed.

[4] = system: caterpillars of the armyworm (Spodoptera frugiperda); experiment: Spodoptera frugiperda spray test (SPODFR); type: in vivo; details: maize leaf discs, after 7 days
Procedure: I. Spodoptera frugiperda-spray Test (SPODFR)
as §2, §3, §4
Leaf discs of maize (Zea mays) are sprayed with an active compound preparation of the desired concentration and, after drying, populated with caterpillars of the armyworm (Spodoptera frugiperda).
After 7 days, the efficacy in % is determined. 100% means that all of the caterpillars have been killed; 0% means that none of the caterpillars have been killed.

[5] = system: adult cat fleas (Ctenocephalides felis); experiment: Ctenocephalides felis in vitro contact test with adult cat fleas (T1); details: after 48 h
Procedure: T1. Ctenocephalides felis—in vitro Contact Tests with Adult Cat Fleas
(§5) For the coating of the test tubes, initially 9 mg of active compound are dissolved in 1 ml of acetone p.a. and then diluted with acetone p.a. to the desired concentration. By turning and rocking on an orbital shaker (2 h of rocking rotation at 30 rpm), 250 μl of the solution are distributed homogeneously on the internal walls and the floor of a 25 ml test tube. At 900 ppm active compound solution and 44.7 cm^2 internal surface, an area dose of 5 μg/cm^2 is achieved for homogeneous distribution.
After evaporation of the solvent, the tubes are populated with 5-10 adult cat fleas (Ctenocephalides felis), sealed with a perforated plastic lid and incubated in a horizontal position at room temperature and ambient humidity. After 48 h, the efficacy is determined. To this end, the test tubes are stood upright and the fleas are knocked to the floor of the tube. Fleas which remain motionless on the floor or move in an uncoordinated manner are considered to be dead or moribund.
An efficacy of 100% means that all fleas were dead or moribund. 0% efficacy means that none of the fleas had been damaged.

[6] = system: adult dog ticks (Rhipicephalus sanguineus); experiment: Rhipicephalus sanguineus in vitro contact test with adult brown dog ticks (T2); details: after 48 h
Procedure: T2. Rhipicephalus sanguineus-in vitro Contact Tests with Adult Brown Dog Ticks
as §5
After evaporation of the solvent, the tubes are populated with 5-10 adult dog ticks (Rhipicephalus sanguineus), sealed with a perforated plastic lid and incubated in a horizontal position in the dark at room temperature and ambient humidity. After 48 h, the efficacy is determined. To this end, the ticks are knocked to the floor of the tube and incubated on a hotplate at 45-50° C. for at most 5 min Ticks which remain motionless on the floor or move in an uncoordinated manner such that they are not able to deliberately avoid the heat by climbing upwards are considered to be dead or moribund.
An efficacy of 100% means that all ticks were dead or moribund. 0% efficacy means that none of the ticks had been damaged.

SMILES | logP [1] | efficacy in % ([2]; application rate 100 g/ha) [%] | efficacy in % ([3]; application rate 100 g/ha) [%] | efficacy in % ([4]; application rate 100 g/ha) [%] | also measured
Cc1nn(-c2c(C(F)(F)F)c(C(F)(F)C(F)(F)F)nn2C)c(C)c1-c1ccc(Cl)c(C(=O)NC2CC2)c1 [Ic-9] | 4.02 | 90 |  |  | 
Cn1nc(C(F)(F)F)c(CO)c1-n1cc(-c2ccc(Cl)c(C(=O)NC3CC3)c2)cn1 [Ic-69] | 2.15 |  |  |  | efficacy in % ([3]; application rate 500 g/ha): 83%; efficacy in % ([2]; application rate 500 g/ha): 90%
Cn1nc(C(F)(F)F)c(CO)c1-n1cc(-c2ccc(Cl)c(C(=O)NC3(C#N)CC3)c2)cn1 [Ic-104] | 2.13 | 100 | 100 |  | 
Cn1nc(C(F)(F)C(F)(F)F)c(C(F)(F)F)c1-n1cc(-c2cccc(C(=O)NC3(C#N)CC3)n2)cn1 [Ic-105] |  |  |  |  | efficacy in % ([3]; application rate 500 g/ha): 100%; efficacy in % ([4]; application rate 500 g/ha): 100%; efficacy in % ([2]; application rate 500 g/ha): 90%
Cn1nc(C(F)(F)C(F)(F)F)c(C(F)(F)F)c1-n1cc(-c2ccc(Cl)c(C(=O)NC3(C#N)CC3)c2F)cn1 [Ic-107] |  |  |  |  | efficacy in % ([3]; application rate 500 g/ha): 100%; efficacy in % ([4]; application rate 500 g/ha): 100%; efficacy in % ([2]; application rate 500 g/ha): 100%; efficacy (dead or moribund fleas) ([5]; application rate 1 μg/cm^2): 100%; efficacy (dead or moribund fleas) ([5]; application rate 5 μg/cm^2): 100%
CC(NC(=O)c1cc(-c2cnn(-c3c(C(F)(F)F)c(C(F)(F)C(F)(F)F)nn3C)c2)ccc1Cl)C(F)(F)F (stereo not drawn) [Ic-110] | 4.23 | 100 | 100 | 100 | efficacy (dead or moribund fleas) ([5]; application rate 5 μg/cm^2): 100%
CSC1CCC1NC(=O)c1cc(-c2cnn(-c3c(C(F)(F)F)c(C(F)(F)C(F)(F)F)nn3C)c2)ccc1Cl (stereo not drawn) [Ic-119] | 4.52 | 100 | 100 | 83 | 
Cn1nc(C(F)(F)C(F)(F)F)c(C(F)(F)F)c1-n1cc(-c2ccc(Cl)c(C(=O)NC3CCC3C[S+](C)[O-])c2)cn1 (stereo not drawn) [Ic-123] | 3.09 | 100 |  |  | 
Cn1nc(C(F)(F)C(F)(F)F)c(C(F)(F)F)c1-n1cc(-c2ccc(Cl)c(C(=O)NC3CCC3S(C)(=O)=O)c2)cn1 (stereo not drawn) [Ic-124] | 3.47 | 100 | 100 | 100 | 
Cn1nc(C(F)(F)C(F)(F)F)c(C(F)(F)F)c1-n1cc(-c2ccc(Cl)c(C(=O)NC3CCC3[S+](C)[O-])c2)cn1 (stereo not drawn) [Ic-125] | 3.17 | 100 | 100 | 83 | 
Cn1nc(C(F)(F)C(F)(F)F)c(C(F)(F)F)c1-n1cc(-c2ccc(Cl)c(C(=O)NC3(C#N)CSC3)c2)cn1 [Ic-128] | 4.38 | 100 | 100 | 100 | 
Cc1ccc(-c2cnn(-c3c(C(F)(F)F)c(C(F)(F)C(F)(F)F)nn3C)c2)cc1C(=O)Nc1ccc(F)cc1 [Ic-131] | 4.57 | 100 | 100 | 100 | 
Cn1nc(C(F)(F)F)c(C(F)(F)F)c1-n1cc(-c2ccc(Cl)c(C(=O)Nc3ccccc3)c2)cn1 [Ic-135] | 4.1 | 100 | 83 | 100 | 
Cn1nc(C(F)(F)C(F)(F)F)c(C(F)(F)F)c1-n1cc(-c2ccc(Cl)c(C(=O)NC3CCC3)c2)cn1 [Ic-143] |  |  |  |  | efficacy (dead or moribund fleas) ([5]; application rate 1 μg/cm^2): 100%; efficacy (dead or moribund fleas) ([5]; application rate 5 μg/cm^2): 100%; efficacy (dead or moribund ticks) ([6]; application rate 1 μg/cm^2): 100%; efficacy (dead or moribund ticks) ([6]; application rate 5 μg/cm^2): 100%
